# Legend:
# [1] = test system: Hs746T ABT-700R xenografts; assay: ABT-700-refractory xenograft efficacy; format: in vivo, mice
# MCF-7 = assay: Cytotoxicity assay (CellTiter-Glo, 6 days); format: cell-based, human; details: MCF-7 breast cancer; relative to untreated control at ≤1 μg/mL in a six day proliferation
# Experimental: (§1) Tumor cells were plated at 2000-5000 cells/well in 180 μL growth medium containing 10% FBS in 96-well plates, and cultured at 37° C. in a humidified incubator with 5% C02. The following day, titrations of antibodies or ADCs in 20 μL were added and cells were incubated for 6 days. Cell viability was determined using a CellTiter-Glo Luminescent Cell Viability Assay (Promega) according to the manufacturer's instructions. A non-binding, irrelevant negative control ADC conjugated to MMAE was also included in all assays to confirm that cell killing was antigen dependent.
# IM-95 = assay: Cytotoxicity assay (CellTiter-Glo, 6 days); format: cell-based, human; details: IM-95 gastric cancer
# Experimental: as §1
# MDA-MB-231 = assay: Cytotoxicity assay (CellTiter-Glo, 6 days); format: cell-based, human; details: MDA-MB-231 breast cancer; relative to untreated control at ≤1 μg/mL in a six day proliferation
# Experimental: as §1
# SNU-5 = assay: Cytotoxicity assay (CellTiter-Glo, 6 days); format: cell-based, human
# Experimental: as §1
# SNU-620 = assay: Cytotoxicity assay (CellTiter-Glo, 6 days); format: cell-based, human; details: SNU-620 gastric cancer
# Experimental: as §1
# HT-29 = assay: Cytotoxicity assay (CellTiter-Glo, 6 days); format: cell-based, human; details: HT-29 colorectal cancer
# Experimental: as §1
# CTG-0058 colorectal PDX = assay: Patient-derived xenograft, tumor growth delay; format: in vivo, NSG mice; details: PDX CTG-0058 (Colorectal); every seven days, six doses; median time to 1 cm^3 vs control
# Experimental: (§2) Tumor fragments of 3 to 5 mm^3 at passage 3 (P3) were implanted subcutaneously in the right rear flank of NSG mice (The Jackson Laboratory) with a trochar. ABBV-399 and ABT-700 PBD were administered every seven days for a total of six doses. […] For all groups, tumor volumes were plotted only for the duration that allowed the full set of animal to remain on study. If animals had to be taken off study, the remaining animals were monitored for tumor growth until they reached defined end-points.
# CTG-0115 colorectal PDX = assay: Patient-derived xenograft, tumor growth delay; format: in vivo, NSG mice; details: PDX CTG-0115 (Colorectal); every seven days, six doses; median time to 1 cm^3 vs control
# Experimental: as §2
# NSCLC = assay: Phase 1b combination with erlotinib; format: in vivo, human; details: ABBV-399 2.7 mg/kg once every 21 days plus erlotinib 150 mg orally every day
# Source text: ABBV-399 will be combined with standard doses of erlotinib, cetuximab, bevacizumab or nivolumab starting at an ABBV-399 dose level below the MTD or MAD and then escalated no higher than MTD or MAD determined in the monotherapy dose-escalation/expansion. Dose limiting toxicity definitions will apply to the dose-escalation portion of each Combination.
# metastatic solid tumors = assay: Phase 1 monotherapy, best response (RECIST 1.1); format: in vivo, human; details: all treated patients
# Source text: Three to 6 subjects will be enrolled in each cohort and dosed once every 21 (one dose per 21-day Cycle) or 14 (2 doses per 28-day Cycle) days until disease progression or unacceptable toxicity to determine the maximum tolerated dose (MTD) or maximally administered dose (MAD). Dose limiting toxicity (DLT) definitions will be used to make decisions regarding dose-escalation. […] On the dose-expansion, subjects with advanced solid tumors with cMet overexpression, MET exon 14 mutation or MET amplification will be enrolled.
# Dosing began at 0.15 mg/kg and escalated to 0.3, 0.6, 1.2, 1.8, 2.4, 3.0 and 3.3 mg/kg in subsequent cohorts as tolerated. Alternative doses (intermediate or higher) or dosing schedules may be employed based on clinical safety and PK data. A dose of 2.7 mg/kg was also utilized based on the clinical safety and PK data. […] It is not administered as an intravenous push or bolus.
# Baseline radiographic tumor assessments with CT (or MRI) of the head, chest, abdomen, and pelvis will be obtained no more than 28 days prior to Cycle 1 Day 1. CT scan (or MRI) will then be repeated approximately every 6 weeks after start of therapy to evaluate the extent of tumor burden. Radiographic tumor assessments will continue until disease progression documented by imaging, start of a new anti cancer therapy, death or withdrawal of consent. Response evaluation will be based on RECIST version 1.1. […]
# [2] = test system: PrEC (prostate epithelial); assay: Cytotoxicity assay (CellTiter-Glo, 6 days); format: cell-based; details: PrEC (prostate epithelial) non-tumor; relative to untreated control at ≤1 μg/mL in a six day proliferation
# Experimental: as §1
# [3] = test system: NHDF (dermal fibroblasts); assay: Cytotoxicity assay (CellTiter-Glo, 6 days); format: cell-based; details: NHDF (dermal fibroblasts) non-tumor; relative to untreated control at ≤1 μg/mL in a six day proliferation
# Experimental: as §1
# [4] = test system: HUVEC (vascular endothelial); assay: Cytotoxicity assay (CellTiter-Glo, 6 days); format: cell-based; details: HUVEC (vascular endothelial) non-tumor; relative to untreated control at ≤1 μg/mL in a six day proliferation
# Experimental: as §1
# [5] = test system: HMEC (mammary epithelial); assay: Cytotoxicity assay (CellTiter-Glo, 6 days); format: cell-based; details: HMEC (mammary epithelial) non-tumor; relative to untreated control at ≤1 μg/mL in a six day proliferation
# Experimental: as §1
# [6] = relative to untreated control at ≤1 μg/mL in a six day proliferation
# [7] = read-out: ABBV-399 IC50, cell proliferation assay, Table 7B
substance,measurement,setting,value
ABBV-399: ADC comprised of the cMet targeting antibody ABT-700 conjugated to MMAE through a valine citrulline (vc) linker,tumor response,[1]; Hs746T ABT-700R of approximately 300 mm^3,complete tumor regression
same,tumor response,"[1]; refractory tumors at mean cohort size approximately 1,000 mm^3, followed by eventual outgrowth",tumor regression
same,Maximal Killing,MCF-7,0%
same,Maximal Killing,IM-95; [6],53%
same,IC50,IM-95; [7],1.7 nM
same,Maximal Killing,MDA-MB-231,0%
same,inhibition of proliferation,"SNU-5; MET-amplified SNU-5 gastric cancer cells, FIG. 4",inhibited proliferation
same,Maximal Killing,"SNU-5; SNU-5 gastric cancer, relative to untreated control at ≤1 μg/mL in a six day proliferation",85%
same,IC50,"SNU-5; read-out: ABBV-399 IC50, SNU-5 gastric cancer, cell proliferation assay, Table 7B",0.28 nM
same,Maximal Killing,SNU-620; [6],80%
same,IC50,SNU-620; [7],0.17 nM
same,Maximal Killing,HT-29; [6],70%
same,IC50,HT-29; [7],9 nM
same,TGD (%) tumor growth delay,CTG-0058 colorectal PDX,71%
same,TGD (%) tumor growth delay,CTG-0115 colorectal PDX,114%
same,patients with partial response,NSCLC,2/6
same,patients with progressive disease (new lesions),NSCLC,1/6
same,best response: progressive disease,metastatic solid tumors; 17/40,42.5%
same,best response: stable disease,metastatic solid tumors; 20/40,50%
same,Maximal Killing,[2],0%
same,Maximal Killing,[3],0%
same,Maximal Killing,[4],6%
same,Maximal Killing,[5],0%
